According to PubChem BioAssay AID1259407 (Chemical Carcinogenesis Research Information System (CCRIS), 2018):
The source made the active and inactive calls. No rule for the calls is given here.

System: CCRIS mutagenicity, Ames/micronucleus/aberration tests
Assay: CCRIS mutagenicity studies
[1] = Test System: AMES SALMONELLA TYPHIMURIUM, Strain/Indicator: TA98, Metabolic Activation: NONE, Method: PREINCUBATION
[2] = Test System: AMES SALMONELLA TYPHIMURIUM, Strain/Indicator: TA100, Metabolic Activation: NONE, Method: PREINCUBATION
[3] = Test System: AMES SALMONELLA TYPHIMURIUM, Strain/Indicator: TA1535, Metabolic Activation: NONE, Method: PREINCUBATION
[4] = Test System: AMES SALMONELLA TYPHIMURIUM, Strain/Indicator: TA1537, Metabolic Activation: NONE, Method: PREINCUBATION
[5] = Test System: AMES SALMONELLA TYPHIMURIUM, Strain/Indicator: TA98, Metabolic Activation: NONE, Method: STANDARD PLATE
[6] = Test System: AMES SALMONELLA TYPHIMURIUM, Strain/Indicator: TA100, Metabolic Activation: NONE, Method: STANDARD PLATE
[7] = Test System: AMES SALMONELLA TYPHIMURIUM, Strain/Indicator: TA100, Metabolic Activation: RAT, LIVER, S-9, AROCLOR 1254, Method: STANDARD PLATE

Measured: mutagenic call

N[C@H](Cc1ccccc1)C(=O)O
inactive: Test System: AMES SALMONELLA TYPHIMURIUM, Strain/Indicator: TA98, Metabolic Activation: HAMSTER, LIVER, S-9, AROCLOR 1254 (10%), Method: PREINCUBATION inactive; negative | [1] inactive; negative | Test System: AMES SALMONELLA TYPHIMURIUM, Strain/Indicator: TA98, Metabolic Activation: RAT, LIVER, S-9, AROCLOR 1254 (10%), Method: PREINCUBATION inactive; negative | Test System: AMES SALMONELLA TYPHIMURIUM, Strain/Indicator: TA100, Metabolic Activation: HAMSTER, LIVER, S-9, AROCLOR 1254 (10%), Method: PREINCUBATION inactive; negative | [2] inactive; negative | Test System: AMES SALMONELLA TYPHIMURIUM, Strain/Indicator: TA100, Metabolic Activation: RAT, LIVER, S-9, AROCLOR 1254 (10%), Method: PREINCUBATION inactive; negative | Test System: AMES SALMONELLA TYPHIMURIUM, Strain/Indicator: TA1535, Metabolic Activation: HAMSTER, LIVER, S-9, AROCLOR 1254 (10%), Method: PREINCUBATION inactive; negative | [3] inactive; negative | Test System: AMES SALMONELLA TYPHIMURIUM, Strain/Indicator: TA1535, Metabolic Activation: RAT, LIVER, S-9, AROCLOR 1254 (10%), Method: PREINCUBATION inactive; negative | Test System: AMES SALMONELLA TYPHIMURIUM, Strain/Indicator: TA1537, Metabolic Activation: HAMSTER, LIVER, S-9, AROCLOR 1254 (10%), Method: PREINCUBATION inactive; negative | [4] inactive; negative | Test System: AMES SALMONELLA TYPHIMURIUM, Strain/Indicator: TA1537, Metabolic Activation: RAT, LIVER, S-9, AROCLOR 1254 (10%), Method: PREINCUBATION inactive; negative

C[n+]1c2ccccc2cc2ccc(N)cc21
active: [4] active; positive | Test System: AMES SALMONELLA TYPHIMURIUM, Strain/Indicator: TA1537, Metabolic Activation: RAT, LIVER, S-9, TETRACHLOROBIPHENYL, Method: PREINCUBATION active; positive | Test System: AMES SALMONELLA TYPHIMURIUM, Strain/Indicator: TA1538, Metabolic Activation: RAT, LIVER, S-9, TETRACHLOROBIPHENYL, Method: PREINCUBATION active; positive | Test System: AMES SALMONELLA TYPHIMURIUM, Strain/Indicator: TA1977, Metabolic Activation: NONE, Method: PREINCUBATION active; positive | Test System: AMES SALMONELLA TYPHIMURIUM, Strain/Indicator: TA1977, Metabolic Activation: RAT, LIVER, S-9, TETRACHLOROBIPHENYL, Method: PREINCUBATION active; positive
inactive: [3] inactive; negative | Test System: AMES SALMONELLA TYPHIMURIUM, Strain/Indicator: TA1535, Metabolic Activation: RAT, LIVER, S-9, TETRACHLOROBIPHENYL, Method: PREINCUBATION inactive; negative | Test System: AMES SALMONELLA TYPHIMURIUM, Strain/Indicator: TA1538, Metabolic Activation: NONE, Method: PREINCUBATION inactive; negative | Test System: AMES SALMONELLA TYPHIMURIUM, Strain/Indicator: TA1978, Metabolic Activation: RAT, LIVER, S-9, TETRACHLOROBIPHENYL, Method: PREINCUBATION inactive; negative

C=CCc1[c-]cccc1.C=CCc1[c-]cccc1.[Pt+2].c1ccc(P(c2ccccc2)c2ccccc2)cc1
inactive: Test System: AMES SALMONELLA TYPHIMURIUM, Strain/Indicator: TA92, Metabolic Activation: NONE, Method: STANDARD PLATE inactive; negative | [6] inactive; negative | Test System: AMES SALMONELLA TYPHIMURIUM, Strain/Indicator: TA2410, Metabolic Activation: NONE, Method: STANDARD PLATE inactive; negative
active: [5] active; positive

CC(C)C1(C)N=C(c2ncccc2C(=O)O)NC1=O (stereo not given)
inactive: End Point: IN VIVO MICRONUCLEUS, Test System: BONE MARROW POLYCHROMATIC ERYTHROCYTES, Species: MOUSE, Strain/Sex: SWISS/MALE, FEMALE, Route: IP 2X IN AQUEOUS SUSPENSION WITHIN 24 HR inactive; negative

Clc1ccc(CCC2CO2)cc1 (stereo not given)
active: [6] active; positive | Test System: AMES SALMONELLA TYPHIMURIUM, Strain/Indicator: TA1535, Metabolic Activation: NONE, Method: STANDARD PLATE active; positive
inactive: [2] inactive; negative | [3] inactive; negative

Oc1cc2ccc3cccc4cc5c(c1-c1ccccc1-5)c2c34
inactive: [7] inactive; negative

ClC(COCC(Cl)C(Cl)(Cl)Cl)C(Cl)(Cl)Cl (stereo not given)
active: Test System: AMES SALMONELLA TYPHIMURIUM, Strain/Indicator: TA100, Metabolic Activation: NONE, Method: MICROSUSPENSION active; positive
inactive: Test System: AMES SALMONELLA TYPHIMURIUM, Strain/Indicator: TA98, Metabolic Activation: NONE, Method: MICROSUSPENSION inactive; negative | Test System: AMES SALMONELLA TYPHIMURIUM, Strain/Indicator: TA98, Metabolic Activation: S-9, Method: MICROSUSPENSION inactive; negative | Test System: AMES SALMONELLA TYPHIMURIUM, Strain/Indicator: TA100, Metabolic Activation: S-9, Method: MICROSUSPENSION inactive; negative

O=CN(O)c1cccc(Cl)c1
inactive: [5] inactive; negative | Test System: AMES SALMONELLA TYPHIMURIUM, Strain/Indicator: TA98, Metabolic Activation: RAT, LIVER, S-9, AROCLOR 1254, Method: STANDARD PLATE inactive; negative | [6] inactive; negative | [7] inactive; negative

CCCCCCC(=O)OCCN1CCN(CCCN2c3ccccc3Sc3ccc(C(F)(F)F)cc32)CC1
inactive: Test System: AMES SALMONELLA TYPHIMURIUM, Strain/Indicator: TA98, Metabolic Activation: NONE inactive; negative | Test System: AMES SALMONELLA TYPHIMURIUM, Strain/Indicator: TA98, Metabolic Activation: RAT, LIVER, S-9, PHENOBARBITAL AND 5,6-BENZOFLAVONE inactive; negative | Test System: AMES SALMONELLA TYPHIMURIUM, Strain/Indicator: TA100, Metabolic Activation: NONE inactive; negative | Test System: AMES SALMONELLA TYPHIMURIUM, Strain/Indicator: TA100, Metabolic Activation: RAT, LIVER, S-9, PHENOBARBITAL AND 5,6 BENZOFLAVONE inactive; negative | Test System: AMES SALMONELLA TYPHIMURIUM, Strain/Indicator: TA1535, Metabolic Activation: NONE inactive; negative | Test System: AMES SALMONELLA TYPHIMURIUM, Strain/Indicator: TA1535, Metabolic Activation: RAT, LIVER, S-9, PHENOBARBITAL AND 5,6-BENZOFLAVONE inactive; negative | Test System: AMES SALMONELLA TYPHIMURIUM, Strain/Indicator: TA1537, Metabolic Activation: NONE inactive; negative | Test System: AMES SALMONELLA TYPHIMURIUM, Strain/Indicator: TA1537, Metabolic Activation: RAT, LIVER, S-9, PHENOBARBITAL AND 5,6-BENZOFLAVONE inactive; negative | Test System: E. COLI, Strain/Indicator: WP2 UVRA, Metabolic Activation: NONE inactive; negative | Test System: E. COLI, Strain/Indicator: WP2 UVRA, Metabolic Activation: RAT, LIVER, S-9, PHENOBARBITAL AND 5,6 BENZOFLAVONE inactive; negative

CCC(C)C=O (stereo not given)
inactive: [1] inactive; negative | Test System: AMES SALMONELLA TYPHIMURIUM, Strain/Indicator: TA98, Metabolic Activation: RAT, LIVER, S-9, AROCLOR 1254, Method: PREINCUBATION inactive; negative | [2] inactive; negative | Test System: AMES SALMONELLA TYPHIMURIUM, Strain/Indicator: TA100, Metabolic Activation: RAT, LIVER, S-9, AROCLOR 1254, Method: PREINCUBATION inactive; negative | Test System: AMES SALMONELLA TYPHIMURIUM, Strain/Indicator: TA102, Metabolic Activation: NONE, Method: PREINCUBATION inactive; negative | Test System: AMES SALMONELLA TYPHIMURIUM, Strain/Indicator: TA102, Metabolic Activation: RAT, LIVER, S-9, AROCLOR 1254, Method: PREINCUBATION inactive; negative
